In article PMC7251097, “Aspartate/asparagine-β-hydroxylase: a high-throughput mass spectrometric assay for discovery of small molecule inhibitors” (Scientific Reports, 2020):
Where a name gives a salt, the structure may show the parent alone. Read-outs that look alike come from different tables or passages of the source.

Molecular target: T1, His6-AspH315–758 (human aspartate/asparagine-β-hydroxylase, AspH) (Homo sapiens, UniProt Q12797)
T1 construct: N-Terminally His6-tagged human AspH315–758 (His6-AspH315–758) was produced in E. coli BL21 (DE3) cells; made in house; host or cells: E. coli BL21 (DE3), pET-28a(+) vector
T1 sequence (Q12797 315-758): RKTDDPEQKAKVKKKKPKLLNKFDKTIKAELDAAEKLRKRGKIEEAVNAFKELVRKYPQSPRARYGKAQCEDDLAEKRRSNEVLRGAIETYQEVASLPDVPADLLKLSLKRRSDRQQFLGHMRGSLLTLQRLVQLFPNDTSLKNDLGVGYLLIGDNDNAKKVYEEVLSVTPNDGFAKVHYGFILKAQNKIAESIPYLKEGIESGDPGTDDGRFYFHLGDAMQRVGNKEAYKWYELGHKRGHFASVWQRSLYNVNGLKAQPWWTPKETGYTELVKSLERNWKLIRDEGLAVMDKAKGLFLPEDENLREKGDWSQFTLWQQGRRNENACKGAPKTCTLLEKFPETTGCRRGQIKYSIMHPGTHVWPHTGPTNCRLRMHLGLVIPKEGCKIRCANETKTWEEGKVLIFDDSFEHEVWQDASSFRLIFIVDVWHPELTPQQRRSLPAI
Test: SPE-MS AspH inhibition assay (LOPAC screen at fixed 20 μM and IC50 dose-response), hydroxylation of cyclic peptide hFX-CP101–119
Assay type: biochemical
Settings: for IC50: 50 nM His6-AspH315–758, 1.0 μM hFX-CP101–119, 3 μM 2OG, 2 μM Fe(II), 50 mM HEPES pH 7.5, 20 °C, mean ± SD, n = 2 (2,4-PDCA n = 10), read-out: IC50; for Inhibition at 20 µM [%]: AspH activity, fixed compound concentration 20 μM, initial LOPAC screen, 0.5%v/v DMSO

[1] = LOPAC Plate 4, compound at 20 uM, substrate conversion
[2] = plate 5 (Pfitzer), test compounds at fixed 20 μM
[3] = plate 5 (Pfitzer), test compounds at fixed 20 μM, mean conversion DMSO 32.88
[4] = LOPAC compound at 20uM, conversion of substrate peptide
[5] = LOPAC compound at 20uM, plate 2, conversion of substrate peptide
[6] = LOPAC compound at 20uM, plate 2, normalised to DMSO and 2,4-PDCA controls
[7] = LOPAC Plate 4, compound at 20 uM
[8] = LOPAC compound at fixed 20 uM, plate 1, normalised to DMSO and 2,4-PDCA controls
[9] = LOPAC compound at fixed 20 uM, substrate conversion, plate 1
[10] = LOPAC compound at 20uM, plate 2, normalised to DMSO and 2,4-PDCA controls, read-out: Plate 2 (% inhibition)
[11] = LOPAC Plate 4, compound at 20 uM, read-out: % inhibition

SMILES: O=C(CCSCc1ccco1)NNC(=O)N1Cc2ccccc2Oc2ccc(Cl)cc21 [SC-51322]
- % conversion [1]: 23.51%
- Plate 5 (% inhibition) [2]: 13.59%
- Plate 5 (% conversion) [3]: 31.69%

SMILES: COc1cc(N)c(Cl)cc1C(=O)NC[C@@H]1CCN2CCC[C@@H]12 [SC-53116]
- Plate 5 (% inhibition) [2]: 9.86%
- Plate 5 (% conversion) [3]: 32.96%

SMILES: CN(CCCOc1ccc(Cc2ccccc2)cc1)CCC(=O)O.Cl [SC-57461A]
- % conversion: 41.07%
- Plate 5 (% conversion): 38.96%
- Plate 5 (% inhibition): -7.77%
- % inhibition (20 µM): -13.47%

SMILES: CS(=O)(=O)c1ccc(-n2nc(C(F)(F)F)cc2-c2ccc(F)cc2)cc1 [SC-58125]
- Plate 3 (% conversion) [4]: 37.41%
- Plate 5 (% inhibition) [2]: 0.65%
- Plate 5 (% conversion) [3]: 36.09%

SMILES: Nc1nc2c(cnn2CCc2ccccc2)c2nc(-c3ccco3)nn12 [SCH 58261]
- % conversion [1]: 31.57%

SMILES: Cc1nc2c(OCc3ccccc3)cccn2c1CC#N [SCH-28080]
- Plate 2 (% conversion) [5]: 38.71%
- Plate 2 (% inhibition) [6]: -8.22%

SMILES: CN=c1nc(-c2ccccc2)n(-c2ccccc2)s1 [SCH-202676, reference compound]
- IC50 (listed as C00007): 510 ± 80 nM
- IC50: ~500 nM
- Inhibition at 20 µM [%]: 100.6%
- % inhibition [7]: 100.56%
- % conversion [1]: 2.15%

SMILES: CCN(CC)CCOC(=O)c1cc(Cl)c(N)cc1OC.Cl [SDZ-205,557 hydrochloride]
- % inhibition [7]: -2.39%
- % conversion [1]: 37.29%

SMILES: Cc1ccc(O)c(N=Nc2ccccc2)n1 [SIB 1757]
- % conversion [1]: 30.83%

SMILES: Cc1cccc(/C=C/c2ccccc2)n1 [SIB 1893]
- % conversion [1]: 34.05%

SMILES: Br.Cc1cccc(C2CN(C)CCc3c2cc(O)c(O)c3Cl)c1 (stereo not drawn) [SKF 83959 hydrobromide, reference compound]
- Inhibition at 20 µM [%]: 95.1%
- % inhibition [7]: 95.13%
- % conversion [1]: 4.00%

SMILES: CN1CCc2cccc(Cl)c2CC1 [SKF 86466]
- % conversion: 40.52%
- inhibition at 20 µM: -11.9%

SMILES: O=C(O)/C=C\C(=O)O.O=C(O)/C=C\C(=O)O.c1cc(CN2CCCCC2)cc(OCCCNc2nc3ccccc3s2)c1 [SKF 95282 dimaleate]
- % conversion: 24.14%

SMILES: CCCC(C(=O)OCCN(CC)CC)(c1ccccc1)c1ccccc1.Cl [SKF-525A hydrochloride]
- Plate 3 (% conversion) [4]: 49.23%

SMILES: Br.CN1Cc2sccc2C(c2ccc(O)c(O)c2)C1 (stereo not drawn) [SKF-89145 hydrobromide]
- Plate 1 (% inhibition) [8]: 78.75%
- Plate 1 (% conversion) [9]: 9.43%

SMILES: C=CCNc1ncnc2ccc(Br)cc12 [SMER28]
- % conversion [1]: 30.76%

SMILES: C=CCN1C[C@H](C)N([C@H](c2ccc(C(=O)N(CC)CC)cc2)c2cccc(OC)c2)C[C@H]1C [SNC80]
- % conversion: 40.53%
- % inhibition (20 µM): -11.89%

SMILES: Oc1c2ccccc2c2c3c(cccc13)N=N2 [SP600125]
- Plate 2 (% conversion) [5]: 37.53%
- inhibition at 20 µM [10]: -4.71%

SMILES: Nc1ncnc2c1ncn2C1CCCO1 (stereo not drawn) [SQ 22536]
- % conversion: 37.42%

SMILES: CCc1ccccc1OC[C@@H](O)CN[C@H]1CCCc2ccccc21.O=C(O)C(=O)O [SR 59230A oxalate]
- % conversion: 13.86%
- % inhibition (20 µM): 66.24%

SMILES: COc1cccc(OC)c1-c1cc(C(=O)NC2(C(=O)O)C3CC4CC(C3)CC2C4)nn1-c1ccc(C(=O)N(C)CCCN(C)C)cc1C(C)C (stereo not drawn) [SR 142948A]
- Plate 2 (% conversion) [5]: 44.18%
- Plate 2 (% inhibition) [6]: -24.57%

SMILES: Br.COc1ccc(-c2ccc(=N)n(CCCC(=O)O)n2)cc1 [SR-95531]
- % conversion: 38.69%
- % inhibition (20 µM): -6.50%

SMILES: Cc1cc(C)c(/C=C2\C(=O)Nc3ccc(Cl)cc32)[nH]1 [SU5614]
- Plate 5 (% inhibition) [2]: 8.69%

SMILES: CN(C)c1ccc(/C=C2\C(=O)Nc3ccccc32)cc1 [SU 4312]
- % inhibition [7]: 2.06%
- % conversion [1]: 35.77%

SMILES: CN(C)S(=O)(=O)c1ccc2c(c1)/C(=C/c1cc3c([nH]1)CCCC3)C(=O)N2 [SU 6656]
- % conversion [1]: 31.14%
- inhibition at 20 µM [11]: 15.6%

SMILES: CCCCCCCCCC[Si](C)(C)CCC(=O)NC(Cc1ccc(C)cc1)c1ccccc1 (stereo not drawn) [Sandoz 58-035]
- Plate 1 (% conversion): 37.15%
- Plate 1 (% inhibition): -3.81%

SMILES: C[n+]1cc2c3c(ccc2c2ccc4cc5c(cc4c21)OCO5)OCO3 [Sanguinarine chloride]
- % conversion: 10.82%

SMILES: Cl.NNC(N)=O [Semicarbazide hydrochloride]
- % conversion: 22.57%

SMILES: C[C@H](O)C(=O)C1=Nc2c(nc(N)[nH]c2=O)NC1 [Sepiapterin]
- % conversion [1]: 40.54%
- inhibition at 20 µM [11]: -11.9%

SMILES: NCCc1c[nH]c2ccc(O)cc12 [Serotonin hydrochloride]
- Plate 2 (% conversion): 31.81%
- inhibition at 20 µM [10]: 12.4%

SMILES: CCCc1nn(C)c2c(=O)[nH]c(-c3cc(S(=O)(=O)N4CCN(C)CC4)ccc3OCC)nc12.O=C(O)CC(O)(CC(=O)O)C(=O)O [Sildenafil citrate salt]
- Plate 1 (% inhibition) [8]: 83.33%
- Plate 1 (% conversion) [9]: 7.89%

SMILES: CC(C)(C)C(=O)Oc1ccc(S(=O)(=O)Nc2ccccc2C(=O)NCC(=O)[O-])cc1.[Na+] [Sivelestat sodium salt hydrate]
- Plate 3 (% conversion) [4]: 36.62%

SMILES: CC(C)COC(=O)OCN1C(=O)CN(CCN2CC(=O)N(COC(=O)OCC(C)C)C(=O)C2)CC1=O [Sobuzoxane]
- % conversion: 68.13%

SMILES: NC(=O)C(=O)O [Sodium Oxamate]
- Plate 3 (% conversion) [4]: 31.22%

SMILES: O=C1NC(=O)[C@@]2(CCOc3ccc(F)cc32)N1 [Sorbinil]
- Plate 1 (% inhibition) [8]: -13.94%
- Plate 1 (% conversion) [9]: 40.55%

SMILES: NCCCCNCCCN [Spermidine trihydrochloride]
- % conversion [1]: 36.29%
- inhibition at 20 µM [11]: 0.53%

SMILES: NCCCNCCCCNCCCN [Spermine tetrahydrochloride]
- % conversion [1]: 39.42%
- inhibition at 20 µM [11]: -8.64%

SMILES: O=C(CCCN1CCC2(CC1)C(=O)NCN2c1ccccc1)c1ccc(F)cc1 [Spiperone hydrochloride]
- % conversion [1]: 26.03%
- inhibition at 20 µM [11]: 30.6%

SMILES: CC(=O)S[C@@H]1CC2=CC(=O)CC[C@]2(C)[C@H]2CC[C@@]3(C)[C@@H](CC[C@@]34CCC(=O)O4)[C@H]12 [Spironolactone]
- % conversion [1]: 41.84%
- inhibition at 20 µM [11]: -15.7%

SMILES: O=[N+]([O-])c1ccc2c(c1)S(=O)(=O)C=C2 [Stattic]
- % conversion: 34.71%
- % inhibition (20 µM): 5.15%

SMILES: C=C1C[C@@]23CC[C@H]4[C@@](C)(CCC[C@@]4(C)C(=O)O)[C@@H]2CC[C@]1(O)C3 [Steviol]
- % conversion [1]: 37.50%
- inhibition at 20 µM [11]: -3.02%

SMILES: C[N+](C)(C)CCOC(=O)CCC(=O)OCC[N+](C)(C)C [Succinylcholine chloride]
- % conversion: 39.43%
- inhibition at 20 µM: -8.69%

SMILES: Nc1ccc(S(=O)(=O)Nc2ccnn2-c2ccccc2)cc1 [Sulfaphenazole]
- % conversion [1]: 26.59%

SMILES: CC1=C(CC(=O)O)c2cc(F)ccc2/C1=C\c1ccc(S(C)(=O)=O)cc1 [Sulindac sulfone]
- % conversion [1]: 33.98%

SMILES: CC1=C(CC(=O)O)c2cc(F)ccc2/C1=C\c1ccc([S+](C)[O-])cc1 (stereo not drawn) [Sulindac]
- % conversion [1]: 35.56%
- inhibition at 20 µM [11]: 2.67%

SMILES: CCN(CC)CCNC(=O)c1c(C)[nH]c(/C=C2\C(=O)Nc3ccc(F)cc32)c1C [Sunitinib malate]
- Plate 2 (% conversion) [5]: 11.67%
- inhibition at 20 µM [10]: 72.5%

SMILES: CCN(CC)CCNC(=O)c1c(C)[nH]c(/C=C2\C(=O)Nc3ccc(F)cc32)c1C [Sunitinib]
- Plate 5 (% inhibition) [2]: 67.34%
- Plate 5 (% conversion) [3]: 13.39%

SMILES: CC(=O)/C=C1\C(=O)N(C)c2ccccc21 [Supercinnamaldehyde]
- Plate 1 (% inhibition) [8]: -3.46%
- Plate 1 (% conversion) [9]: 37.03%

SMILES: Cc1ccc(C(=O)Nc2ccc(S(=O)(=O)[O-])c3cc(S(=O)(=O)[O-])cc(S(=O)(=O)[O-])c23)cc1NC(=O)c1cccc(NC(=O)Nc2cccc(C(=O)Nc3cc(C(=O)Nc4ccc(S(=O)(=O)[O-])c5cc(S(=O)(=O)[O-])cc(S(=O)(=O)[O-])c45)ccc3C)c2)c1.[Na+].[Na+].[Na+].[Na+].[Na+].[Na+] [Suramin sodium salt, reference compound]
- Inhibition at 20 µM [%]: 103.3%
- % conversion [1]: 1.22%

SMILES: O=C(Nc1ccncc1)c1cc([N+](=O)[O-])ccc1Cl [T0070907]
- Plate 3 (% conversion) [4]: 31.53%

SMILES: Brc1c(Br)c(Br)c2[nH]cnc2c1Br [TBBz]
- Plate 1 (% conversion): 32.96%
- Plate 1 (% inhibition): 8.67%

SMILES: O=C(O)CCN(O)C(=O)CCCCCCCCC1CC1 [TC-E 5002, reference compound]
- IC50: 6660 ± 690 nM

SMILES: Clc1cnc(Oc2ccc(Oc3ncc(Cl)cc3Cl)cc2)c(Cl)c1 [TCPOBOP]
- % conversion: 30.30%
